Test results as given in patent EP0619297B1, “Fungicides for the control of take-all desease of plants” (MONSANTO COMPANY, priority 1993, dated 1994).

system: Gaeumannomyces graminis var. tritici (Ggt); assay: In vitro assay: mycelial growth on minimal media agar plates (Percent Inhibition; IC50); format: cell-based; settings: read-out: In vitro(ppm) 0.1, Percent Inhibition
Procedure: The test compounds (0.25 mL of an appropriate stock solution in acetone) are incorporated into 25 mL minimal media agar [prepared by autoclaving a solution of 17.5 g Czapek Dox broth (Difco), 7.5 g purified agar or Bacto-agar (Difco), and 500 mL distilled/deionized water, and then adding 50 µL of 1 mg/mL thiamine hydrochloride and 50 µL of 1 mg/mL biotin in 5% ethanol] and plates are prepared.
Each plate is inoculated by placing in a triangular shape three 4-mm plugs of Gaeumannomyces graminis var. tritici (Ggt) grown on the minimal media agar described above. The plates are incubated in the dark at 19 - 20 °C for 4 to 5 days. The growth of the fungus is measured as the diameter of the mycelial growth. The result is expressed as Percent Inhibition, calculated as [1 - [(mm growth on treated plate - 4)/(mm growth on control plate - 4)]] x 100.
To determine IC5O values, an in vitro assay was run on each compound at the concentrations of 1, 0.1, 0.01, 0.001, and 0.0001 ppm. The percent inhibition was calculated for each concentration using the equation described in the in vitro assay under the section on Biological Assays. Using the two ordered pairs of (concentration, % inhibition) that bracket 50% inhibition of fungal growth, the concentration for 50% inhibition is calculated from the following equation. IC50 = [(50-I2 )C1 + (I1 -50)C2 ]/(I1 -I2 ), [formula] where C1 = 10C2.

SMILES	inhibition at 0.1 ppm [%]
CCNC(=O)c1c([Si](C)(C)C)ccc2sccc12 [Example 41, N-ethyl 5-trimethylsilyl benzothiophene-4-carboxamide]	98
CCNC(=O)c1c([Si](C)(C)C)ccc2ccccc12 [Example 4, N-Ethyl-2-(trimethylsilyl)-1-naphthalenecarboxamide]	100
CCNC(=O)c1cc2ccccc2cc1[Si](C)(C)C [Example 5, N-Ethyl-3-(trimethylsilyl)-2-naphthalenecarboxamide]	0
CCN(CC)C(=O)c1c([Si](C)(C)C)ccc2ccccc12 [Example 3, N,N-Diethyl-2-(trimethylsilyl)-1-naphthalenecarboxamide]	0
CC(C)(C)Nc1ccc2ccccc2c1C(=O)NCCBr [Example 18, N-(2-bromoethyl) 2-[(1,1-dimethylethyl)amino]-1-naphthamide]	10
CCNC(=O)n1c([Si](C)(C)C)cc2ccccc21 [Example 7, N-Ethyl-2-(trimethylsilyl)-1H-indole-1-carboxamide]	88
C=CCNC(=O)c1c([Si](C)(C)C)sc2ccccc12 [Example 13, N-2-Propenyl-2-(trimethylsilyl)benzo[b]thiophene-3-carboxamide]	100
CCNC(=O)c1c([Si](C)(C)C)ccc2ccsc12 [Example 43, N-ethyl 6-trimethylsilyl benzothiophene-7-carboxamide]	98
CCNC(=O)c1c([Si](C)(C)C)n(C)c2ccccc12 [Example 10, N-Ethyl-1-Methyl-2-(trimethylsilyl)-1H-indole-3-carboxamide]	13
CCNC(=O)C1=C([Si](C)(C)C)S(=O)(=O)c2ccccc21 [Example 15, N-Ethyl-2-(trimethylsilyl)benzo[b]thiophene-3-carboxamide 1,1-dioxide]	10
CCNC(=O)c1oc2ccccc2c1[Si](C)(C)C [Example 11, N-Ethyl-3-(trimethylsilyl)-2-benzofurancarboxamide]	27

same assay, conditions: read-out: In vitro(ppm) 1, Percent Inhibition

SMILES	inhibition at 1 ppm [%]
CCNC(=O)c1c([Si](C)(C)C)ccc2sccc12 [Example 41, N-ethyl 5-trimethylsilyl benzothiophene-4-carboxamide]	98
CCNC(=O)c1c([Si](C)(C)C)ccc2ccccc12 [Example 4, N-Ethyl-2-(trimethylsilyl)-1-naphthalenecarboxamide]	100
CCNC(=O)c1cc2ccccc2cc1[Si](C)(C)C [Example 5, N-Ethyl-3-(trimethylsilyl)-2-naphthalenecarboxamide]	94
CCN(CC)C(=O)c1c([Si](C)(C)C)ccc2ccccc12 [Example 3, N,N-Diethyl-2-(trimethylsilyl)-1-naphthalenecarboxamide]	0
CC(C)(C)Nc1ccc2ccccc2c1C(=O)NCCBr [Example 18, N-(2-bromoethyl) 2-[(1,1-dimethylethyl)amino]-1-naphthamide]	88
CCNC(=O)n1c([Si](C)(C)C)cc2ccccc21 [Example 7, N-Ethyl-2-(trimethylsilyl)-1H-indole-1-carboxamide]	100
C=CCNC(=O)c1c([Si](C)(C)C)sc2ccccc12 [Example 13, N-2-Propenyl-2-(trimethylsilyl)benzo[b]thiophene-3-carboxamide]	100
CCNC(=O)c1c([Si](C)(C)C)ccc2ccsc12 [Example 43, N-ethyl 6-trimethylsilyl benzothiophene-7-carboxamide]	100
CCNC(=O)c1c([Si](C)(C)C)n(C)c2ccccc12 [Example 10, N-Ethyl-1-Methyl-2-(trimethylsilyl)-1H-indole-3-carboxamide]	80
CCNC(=O)C1=C([Si](C)(C)C)S(=O)(=O)c2ccccc21 [Example 15, N-Ethyl-2-(trimethylsilyl)benzo[b]thiophene-3-carboxamide 1,1-dioxide]	30
CCNC(=O)c1oc2ccccc2c1[Si](C)(C)C [Example 11, N-Ethyl-3-(trimethylsilyl)-2-benzofurancarboxamide]	42

same assay, conditions: read-out: In vitro(ppm) 10, Percent Inhibition

SMILES	inhibition at 10 ppm [%]
CCNC(=O)c1c([Si](C)(C)C)ccc2sccc12 [Example 41, N-ethyl 5-trimethylsilyl benzothiophene-4-carboxamide]	100
CCNC(=O)c1c([Si](C)(C)C)ccc2ccccc12 [Example 4, N-Ethyl-2-(trimethylsilyl)-1-naphthalenecarboxamide]	100
CCNC(=O)c1cc2ccccc2cc1[Si](C)(C)C [Example 5, N-Ethyl-3-(trimethylsilyl)-2-naphthalenecarboxamide]	100
CCN(CC)C(=O)c1c([Si](C)(C)C)ccc2ccccc12 [Example 3, N,N-Diethyl-2-(trimethylsilyl)-1-naphthalenecarboxamide]	100
CC(C)(C)Nc1ccc2ccccc2c1C(=O)NCCBr [Example 18, N-(2-bromoethyl) 2-[(1,1-dimethylethyl)amino]-1-naphthamide]	98
CCNC(=O)n1c([Si](C)(C)C)cc2ccccc21 [Example 7, N-Ethyl-2-(trimethylsilyl)-1H-indole-1-carboxamide]	100
C=CCNC(=O)c1c([Si](C)(C)C)sc2ccccc12 [Example 13, N-2-Propenyl-2-(trimethylsilyl)benzo[b]thiophene-3-carboxamide]	100
CCNC(=O)c1c([Si](C)(C)C)ccc2ccsc12 [Example 43, N-ethyl 6-trimethylsilyl benzothiophene-7-carboxamide]	100
CCNC(=O)c1c([Si](C)(C)C)n(C)c2ccccc12 [Example 10, N-Ethyl-1-Methyl-2-(trimethylsilyl)-1H-indole-3-carboxamide]	85
CCNC(=O)C1=C([Si](C)(C)C)S(=O)(=O)c2ccccc21 [Example 15, N-Ethyl-2-(trimethylsilyl)benzo[b]thiophene-3-carboxamide 1,1-dioxide]	83
CCNC(=O)c1oc2ccccc2c1[Si](C)(C)C [Example 11, N-Ethyl-3-(trimethylsilyl)-2-benzofurancarboxamide]	82

system: Ggt; assay: In vivo assay: control of Ggt on wheat in 3-inch pots with infested soil, rated after four weeks; parameters: species or system Gaeumannomyces graminis var. tritici; settings: Gaeumannomyces graminis, soil, 672 h, read-out: In vivo(ppm) 0.02mg/pot, percent disease control
Procedure: Compounds are tested for control of Ggt on 'Bergen' or 'Anza' varieties of wheat grown in 3-inch square pots containing soil infested with Ggt. The infestation is accomplished by mixing the soil with an inoculum prepared by growing Ggt on 1/4 strength potato dextrose agar (4.875 g potato dextrose agar, 5.0 g Bacto agar, 500 mL distilled, deionized water) in plates and using plugs from the plates to infest sterile oats (400 cc whole oats, 350 mL deionized water, autoclaved). After a one-month incubation period at room temperature, the oats are dried and mixed with the soil at 4% v/v. Four wheat seeds are placed on top of the soil in each pot. […] Five pots are used for each treatment level and the controls, which are untreated, inoculated and non-inoculated pots. After one hour drying time, the seeds are covered with more of the appropriate soil and a layer of vermiculite. The pots are placed in a growth chamber and watered each day. After four weeks, each pot is evaluated for evidence of disease by examination of the seminal roots of each plant under a dissecting microscope. A 0 to 5 rating scale having the following meanings is used: • 0 = no runner hyphae or lesions present • 1 = runner hyphae and a few small lesions present on <10% of root system • 2 = runner hyphae and small lesions present on 10 - 25% of root system • 3 = runner hyphae and lesions present on 25 - 50% of root system • 4 = runner hyphae and many, large, coalescing lesions on >50% of root system • 5 = root system and culm completely inundated with lesions and runner hyphae
From each set of five replicates a high or low score may be eliminated to assure the best representative scores are used to calculate a replicate mean by averaging the remaining scores. This mean score is then compared to the untreated control score and a percent disease control is calculated.

SMILES	pest or weed control at 0.02 mg/pot [%]
CCNC(=O)c1c([Si](C)(C)C)ccc2sccc12 [Example 41, N-ethyl 5-trimethylsilyl benzothiophene-4-carboxamide]	75
CC(C)(C)Nc1ccc2ccccc2c1C(=O)NCCBr [Example 18, N-(2-bromoethyl) 2-[(1,1-dimethylethyl)amino]-1-naphthamide]	0
CCNC(=O)c1c([Si](C)(C)C)ccc2ccsc12 [Example 43, N-ethyl 6-trimethylsilyl benzothiophene-7-carboxamide]	50

same assay, conditions: Gaeumannomyces graminis, soil, 672 h, read-out: In vivo(ppm) 0.1, percent disease control

SMILES	pest or weed control at 0.1 mg/pot [%]
CCNC(=O)c1c([Si](C)(C)C)ccc2sccc12 [Example 41, N-ethyl 5-trimethylsilyl benzothiophene-4-carboxamide]	99
CCNC(=O)c1c([Si](C)(C)C)ccc2ccccc12 [Example 4, N-Ethyl-2-(trimethylsilyl)-1-naphthalenecarboxamide]	85
CCNC(=O)c1cc2ccccc2cc1[Si](C)(C)C [Example 5, N-Ethyl-3-(trimethylsilyl)-2-naphthalenecarboxamide]	18
CC(C)(C)Nc1ccc2ccccc2c1C(=O)NCCBr [Example 18, N-(2-bromoethyl) 2-[(1,1-dimethylethyl)amino]-1-naphthamide]	0
CCNC(=O)n1c([Si](C)(C)C)cc2ccccc21 [Example 7, N-Ethyl-2-(trimethylsilyl)-1H-indole-1-carboxamide]	40
C=CCNC(=O)c1c([Si](C)(C)C)sc2ccccc12 [Example 13, N-2-Propenyl-2-(trimethylsilyl)benzo[b]thiophene-3-carboxamide]	84
CCNC(=O)c1c([Si](C)(C)C)ccc2ccsc12 [Example 43, N-ethyl 6-trimethylsilyl benzothiophene-7-carboxamide]	79

same assay, conditions: Gaeumannomyces graminis, soil, 672 h, read-out: In vivo(ppm) 0.5, percent disease control

SMILES	pest or weed control at 0.5 mg/pot [%]
CCNC(=O)c1c([Si](C)(C)C)ccc2sccc12 [Example 41, N-ethyl 5-trimethylsilyl benzothiophene-4-carboxamide]	100
CCNC(=O)c1c([Si](C)(C)C)ccc2ccccc12 [Example 4, N-Ethyl-2-(trimethylsilyl)-1-naphthalenecarboxamide]	99
CCNC(=O)c1cc2ccccc2cc1[Si](C)(C)C [Example 5, N-Ethyl-3-(trimethylsilyl)-2-naphthalenecarboxamide]	27
CCN(CC)C(=O)c1c([Si](C)(C)C)ccc2ccccc12 [Example 3, N,N-Diethyl-2-(trimethylsilyl)-1-naphthalenecarboxamide]	68
CC(C)(C)Nc1ccc2ccccc2c1C(=O)NCCBr [Example 18, N-(2-bromoethyl) 2-[(1,1-dimethylethyl)amino]-1-naphthamide]	14
CCNC(=O)n1c([Si](C)(C)C)cc2ccccc21 [Example 7, N-Ethyl-2-(trimethylsilyl)-1H-indole-1-carboxamide]	79
C=CCNC(=O)c1c([Si](C)(C)C)sc2ccccc12 [Example 13, N-2-Propenyl-2-(trimethylsilyl)benzo[b]thiophene-3-carboxamide]	94
CCNC(=O)c1c([Si](C)(C)C)ccc2ccsc12 [Example 43, N-ethyl 6-trimethylsilyl benzothiophene-7-carboxamide]	88
